Laboratory results as given in article PMC10812767, “Therapeutic Drug Monitoring of Dalbavancin in Real Life: A Two-Year Experience” (Antibiotics, 2023).

Assays:
[1] = Therapeutic drug monitoring of plasma dalbavancin concentrations (Cmin, Cmax) by LC-MS/MS; format: in vivo, human (patients)
From the text: This study involved a retrospective analysis of TDM that was routinely carried out by the ASST Fatebenefratelli Sacco University Hospital (Milan, Italy) from December 2021 to November 2023; the analysis included samples that were collected within our hospital and those received from other hospitals (our laboratory is a reference laboratory for the TDM of dalbavancin in Lombardy Region, Italy). This service also included the on-demand estimation of the next dalbavancin injection. This estimation required the collection of both the Cmin and the Cmax for dalbavancin. […] Plasma blood samples with dalbavancin were assessed by using ethylene diamine tetra-acetic acid (EDTA)-containing Vacutainers®. All samples were centrifuged at 3000× g, and the plasma was separated and stored at −20 °C. Dalbavancin quantification was performed through a validated LC-MS/MS method that was developed and validated according to the EMA guidelines. The analytical process consisted of a fast protein precipitation protocol of 50 µL of plasma with 400 µL of precipitation solution (methanol/acetonitrile 3/1), centrifugation at 10,000× g, 1:3 dilutions with water, and analysis. […] Waters, Milan, Italy). For quantification, analysis was performed in the ESI-positive mode by monitoring the transition (m/z = 909.45 > 340.2) for dalbavancin.

[2] = cited from earlier work
[3] = Log-linear regression models describing the time distribution of dalbavancin concentrations; conditions: for Days >4 mg/L / Days >8 mg/L: log-linear regression model, pooled patients
Protocol: Coupled with the Cmin values, these samples facilitated the development of log-linear regression models describing the time distribution of dalbavancin concentrations for each injection. By targeting the Cmin values for dalbavancin that were not lower than 4 or 8 mg/L, we were able to estimate the number of days needed between each injection to guarantee these targets.
We retrospectively analyzed data from adult patients who received at least 3 doses of dalbavancin for the treatment of osteoarticular and/or periprosthetic joint infections for whom TDM was performed as part of clinical practice. On the day of the scheduled injection, the Cmin for dalbavancin within a 1 h time window before the injection was considered for both Cmin- and Cmax-based TDM. Peak drug concentrations (30 to 60 min after the end of the infusion) were collected only in patients subjected to Cmax-based TDM.
Dalbavacin concentrations were considered both as a continuous variable (expressed as the mean ± standard deviation) and categorical variables, and data (expressed as a percentage) were clustered according to their frequency distribution within the therapeutic ranges proposed in the available literature (>4 or >8 mg/L). Inter-individual variability in the dalbavancin concentrations was calculated as the percentage of the coefficient of variation (CV%). Log-linear regressions were performed using the built-in statistical package in Microsoft Excel (Microsoft Office Software, Microsoft Company, Redmond, WA, USA). The goodness of the log-linear regression models developed by plotting logarithmic concentrations (Y) of dalbavancin with time (X) was quantified using the coefficient of correlation (r). Unpaired t-tests were used to compare the Cmin for dalbavancin, the number of drug injections, and the times of injections between Cmin- and Cmax-based TDM. Statistical significance was set at <0.05 (significant difference) and <0.01 (highly significant difference).

CN[C@H]1C(=O)N[C@@H]2Cc3ccc(cc3)Oc3cc4cc(c3O[C@@H]3O[C@H](C(=O)O)[C@@H](O)[C@H](O)[C@H]3NC(=O)CCCCCCCCC(C)C)Oc3ccc(cc3Cl)[C@@H](O)[C@@H]3NC(=O)[C@H](NC(=O)[C@@H]4NC(=O)[C@@H](NC2=O)c2cc(cc(O)c2Cl)Oc2cc1ccc2O)c1ccc(O)c(c1)-c1c(O[C@H]2O[C@H](CO)[C@@H](O)[C@H](O)[C@@H]2O)cc(O)cc1[C@@H](C(=O)NCCCN(C)C)NC3=O [dalbavancin]
Cmax of dalbavancin, range ([1]; 107 TDM assessments, plasma, 30 to 60 min after end of infusion, LC-MS/MS, range): 74.9 to 995.6 µg/mL
Dalbavancin Cmin CV% ([1]; Cmax-based TDM, 2nd injection): 44%
Dalbavancin Cmin CV% ([1]; Cmax-based TDM, 3rd injection): 46%
Dalbavancin Cmin CV% ([1]; Cmax-based TDM, 4th injection): 40%
Dalbavancin Cmin CV% ([1]; Cmax-based TDM, 5th injection): 21%
Dalbavancin Cmin CV% ([1]; Cmax-based TDM, 6th injection): 32%
Dalbavancin Cmin CV% ([1]; Cmax-based TDM, ≥6 injections): 32%
Dalbavancin Cmin CV% ([1]; Cmin-based TDM, 2nd injection): 45%
Dalbavancin Cmin CV% ([1]; Cmin-based TDM, 3rd injection): 57%
Dalbavancin Cmin CV% ([1]; Cmin-based TDM, 4th injection): 43%
Dalbavancin Cmin CV% ([1]; Cmin-based TDM, 5th injection): 56%
Dalbavancin Cmin CV% ([1]; Cmin-based TDM, 6th injection): 41%
Dalbavancin Cmin CV% ([1]; Cmin-based TDM, ≥6 injections): 37%
Cmin for dalbavancin, range ([1]; human, in vivo, iv): 4.1 to 70.5 µg/mL
Cmin for dalbavancin before the second injection ([1]; human, in vivo, iv, SD): 39.6 ± 35.4 µg/mL
Cmin for dalbavancin, mean ([1]; human, in vivo, iv, SD): 20.7 ± 14.0 µg/mL
Cmax ([1]; human, in vivo, SD): 310 ± 158 µg/mL
terminal half-life ([2]; ref [1],[2],[3],[4]): > 14 days
total volume of distribution ([2]; ref [2],[3]): ~16 L
Days >4 mg/L ([3]; 2nd injection): 52 days
Days >8 mg/L ([3]; 2nd injection): 42 days
Days >4 mg/L ([3]; 3rd injection): 52 days
Days >8 mg/L ([3]; 3rd injection): 43 days
Days >4 mg/L ([3]; 4th injection): 59 days
Days >8 mg/L ([3]; 4th injection): 48 days
Days >4 mg/L ([3]; 5th injection): 56 days
Days >8 mg/L ([3]; 5th injection): 45 days
Days >4 mg/L ([3]; 6th injection): 53 days
Days >8 mg/L ([3]; 6th injection): 44 days
Days >4 mg/L ([3]; >6 injections): 52 days
Days >8 mg/L ([3]; >6 injections): 42 days
Days >4 mg/L ([3]; Overall): 54 days
Days >8 mg/L ([3]; Overall): 44 days
Days between injections needed to maintain Cmin >8 mg/L ([3]; estimated from pooled log-linear regression models, range over injections): 42 to 48 days
